Read-outs that look alike come from different tables or passages of the source.
Assays:
Assay type in all cases: in vivo
corn (Zea mays) = test: Test C pre/postemergence; conditions: Zea mays; for Corn plant response rating (crop injury, 0 = no effect, 100 = complete kill) at 31 g/ha: 31 g ai/ha; for Corn plant response rating (crop injury, 0 = no effect, 100 = complete kill) at 62 g/ha: 62 g ai/ha; for Corn plant response rating (crop injury, 0 = no effect, 100 = complete kill) at 125 g/ha: 125 g ai/ha
Procedure, shortened: (§1)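 Test compounds, formulated in a non-phytotoxic solvent mix with surfactant, were applied to freshly planted seeds and, at the same time, to emerged plants at 1- to 4-leaf stage (2 to 18 cm). After 12 to 14 days in the greenhouse, response was scored visually versus controls, 0 = no effect, 100 = complete control.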

[1] = test system: morningglory (Ipomoea coccinea); test: Test C pre/postemergence; conditions: Ipomoea; for pest or weed control at 31 g/ha: 31 g ai/ha; for pest or weed control at 62 g/ha: 62 g ai/ha; for pest or weed control at 125 g/ha: 125 g ai/ha; for pest or weed control at 250 g/ha: 250 g ai/ha
Procedure, shortened: as §1

[2] = test system: woolly cupgrass (Eriochloa villosa); test: Test C pre/postemergence; conditions: Eriochloa villosa; for pest or weed control at 31 g/ha: 31 g ai/ha; for pest or weed control at 62 g/ha: 62 g ai/ha; for pest or weed control at 125 g/ha: 125 g ai/ha
Procedure, shortened: as §1

[3] = test system: ducksalad (Heteranthera limosa); test: Test E flooded paddy water application; conditions: Flood, 21 days, scale 0 to 100 (0 no effect, 100 complete control)
Procedure, shortened: (§2)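 Greenhouse pots of Tama silt loam with weeds and rice at 2.0–2.5-leaf stage, flooded to 3 cm; compounds applied directly into paddy water, depth maintained. Visual rating versus untreated controls after 21 days, 0 (no effect) to 100 (complete control); 29.5/26.7 °C, 16-h photoperiod.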

[4] = test system: early watergrass (Echinochloa oryzoides); test: Test E flooded paddy water application; conditions: Flood, 21 days, scale 0 to 100 (0 no effect, 100 complete control)
Procedure, shortened: as §2

[5] = test system: junglerice (Echinochloa colona); test: Test E flooded paddy water application; conditions: Flood, 21 days, scale 0 to 100 (0 no effect, 100 complete control)
Procedure, shortened: as §2

[6] = test system: smallflower umbrella sedge (Cyperus difformis); test: Test E flooded paddy water application; conditions: Flood, 21 days, scale 0 to 100 (0 no effect, 100 complete control)
Procedure, shortened: as §2

[7] = test system: water seeded rice seedlings (Oryza sativa cv. ‘Japonica-M202’); test: Test E flooded paddy water application; conditions: Flood, 21 days, scale 0 to 100 (0 no effect, 100 complete control)
Procedure, shortened: as §2

[8] = post-emergence, Postemergence, scale 0 to 100 (0 no effect, 100 complete control), read-out: Corn plant response rating
[9] = pre-emergence, Preemergence, scale 0 to 100, 0 no effect, 100 complete control, read-out: Plant response rating, Corn
[10] = post-emergence, Postemergence, scale 0 to 100 (0 no effect, 100 complete control), read-out: Morningglory plant response rating
[11] = pre-emergence, Preemergence, scale 0 to 100, 0 no effect, 100 complete control, read-out: Plant response rating, Morningglory
[12] = pre-emergence, Preemergence, scale 0 to 100, read-out: Plant response rating, Morningglory
[13] = post-emergence, Postemergence, scale 0 to 100 (0 no effect, 100 complete control), read-out: Cupgrass, Woolly plant response rating
[14] = pre-emergence, Preemergence, scale 0 to 100, 0 no effect, 100 complete control, read-out: Plant response rating, Cupgrass, Woolly

CCOC(=O)c1nc(-c2ccc(Cl)cc2)nc(N)c1Cl [Compound 64, ethyl 6-amino-5-chloro-2-(4-chlorophenyl)-4-pyrimidinecarboxylate]
Corn plant response rating (crop injury, 0 = no effect, 100 = complete kill) at 31 g/ha (corn (Zea mays); post-emergence, Postemergence, read-out: Plant response rating (scale of 0 to 100), Corn): 20% | Corn plant response rating (crop injury, 0 = no effect, 100 = complete kill) at 62 g/ha (corn (Zea mays); [8]): 50% | Corn plant response rating (crop injury, 0 = no effect, 100 = complete kill) at 125 g/ha (corn (Zea mays); [8]): 50% | Corn plant response rating (crop injury, 0 = no effect, 100 = complete kill) at 31 g/ha (corn (Zea mays); [9]): 0% | Corn plant response rating (crop injury, 0 = no effect, 100 = complete kill) at 62 g/ha (corn (Zea mays); [9]): 0% | Corn plant response rating (crop injury, 0 = no effect, 100 = complete kill) at 125 g/ha (corn (Zea mays); pre-emergence, Preemergence, scale 0 to 100, read-out: Plant response rating, Corn): 20% | Corn plant response rating (crop injury, 0 = no effect, 100 = complete kill) at 250 g/ha (corn (Zea mays); pre-emergence, Preemergence, 250 g ai/ha, scale 0 to 100): 30% | pest or weed control at 31 g/ha ([1]; post-emergence, Postemergence, read-out: Plant response rating (scale of 0 to 100), Morningglory): 90% | pest or weed control at 62 g/ha [1, 10]: 90% | pest or weed control at 125 g/ha [1, 10]: 90% | pest or weed control at 250 g/ha ([1]; post-emergence, Postemergence, scale 0 to 100, read-out: Plant response rating, Morningglory): 90% | pest or weed control at 31 g/ha [1, 11]: 0% | pest or weed control at 62 g/ha [1, 11]: 0% | pest or weed control at 125 g/ha [1, 12]: 0% | pest or weed control at 250 g/ha [1, 12]: 10% | pest or weed control at 31 g/ha ([2]; post-emergence, Postemergence, read-out: Plant response rating (scale of 0 to 100), Cupgrass, Woolly): 30% | pest or weed control at 62 g/ha [2, 13]: 40% | pest or weed control at 125 g/ha [2, 13]: 65% | pest or weed control at 31 g/ha [2, 14]: 0% | pest or weed control at 62 g/ha [2, 14]: 0% | pest or weed control at 125 g/ha ([2]; pre-emergence, Preemergence, scale 0 to 100, read-out: Plant response rating, Cupgrass, Woolly): 0% | pest or weed control at 250 g/ha ([2]; pre-emergence, Preemergence, 250 g ai/ha, scale 0 to 100, read-out: Plant response rating, Cupgrass, Woolly): 40% | Ducksalad plant response rating ([3]; 32 g ai/ha): 100 | Ducksalad plant response rating ([3]; 64 g ai/ha): 100 | Ducksalad plant response rating ([3]; 125 g ai/ha): 100 | Ducksalad plant response rating ([3]; 250 g ai/ha): 100 | Plant response rating, Ducksalad ([3]; 16 g ai/ha): 100 | Watergrass, Early plant response rating ([4]; 32 g ai/ha): 0 | Watergrass, Early plant response rating ([4]; 64 g ai/ha): 0 | Watergrass, Early plant response rating ([4]; 125 g ai/ha): 0 | Watergrass, Early plant response rating ([4]; 250 g ai/ha): 0 | Plant response rating, Watergrass, Early ([4]; 16 g ai/ha): 0 | Junglerice plant response rating ([5]; 32 g ai/ha): 0 | Junglerice plant response rating ([5]; 64 g ai/ha): 0 | Junglerice plant response rating ([5]; 125 g ai/ha): 0 | Junglerice plant response rating ([5]; 250 g ai/ha): 0 | Plant response rating, Junglerice ([5]; 16 g ai/ha): 0 | Sedge, Umbrella plant response rating ([6]; 32 g ai/ha): 80 | Sedge, Umbrella plant response rating ([6]; 64 g ai/ha): 85 | Sedge, Umbrella plant response rating ([6]; 125 g ai/ha): 100 | Sedge, Umbrella plant response rating ([6]; 250 g ai/ha): 100 | Plant response rating, Sedge, Umbrella ([6]; 16 g ai/ha): 65 | Rice, Water Seeded plant response rating ([7]; 32 g ai/ha): 0 | Rice, Water Seeded plant response rating ([7]; 64 g ai/ha): 0 | Rice, Water Seeded plant response rating ([7]; 125 g ai/ha): 0 | Rice, Water Seeded plant response rating ([7]; 250 g ai/ha): 0 | Plant response rating, Rice, Water Seeded ([7]; 16 g ai/ha): 0

— patent publication US8802597B2, “Herbicidal pyrimidines” (E I du Pont de Nemours and Company, priority 2003, dated 2014)
